In data set [1] the test system is maximal electroshock seizure (MES). The data set is described as follows: maximal electroshock seizure. To be noted: for ED50: Mus musculus, ip, read-out: MES, ED50; for duration of action in the MES model: mice (ip) and rat (po). Type of data set: in vivo, mice. On the technique in general: Protection in the maximal electroshock model is a classic sign of anticonvulsant action.

Data set [2] deals with subcutaneous Metrazol (scMet) seizure. As to the kind of experiment: subcutaneous Metrazol. Type of data set: in vivo, mice. The settings on record: Mus musculus, ip, read-out: scMet ED50.
In data set [3] the test system is behavioral toxicity. The data set is described as follows: behavioral toxicity, rat. The settings on record: for behavioral toxicity observed: rat (po), 500 mg/kg; for PI: protective index TD50/ED50.
Data set [4] concerns maximal electroshock seizure (MES). As to the kind of experiment: maximal electroshock seizure. To be noted: for MES, ED50: rat, po. Type of data set: in vivo, rat.
Data set [5] deals with formalin-induced pain response. The data set is described as follows: formalin test, biphasic pain model, mice. Type of data set: in vivo. The settings on record: 15 mg/kg; mouse, ip.
For data set [6], the system named is hippocampal kindled seizure. To be noted: rat; similar screening; cited from earlier work.
Data set [7] has as its system formalin-induced pain response. To be noted: 16 mg/kg; cited from earlier work.
The test system of data set [8] is psychomotor 6 Hz (32 mA) seizure. To be noted: mice, ip; cited from earlier work.
A further data set in a line: behavioral toxicity, rat. To be noted: male, Sprague-Dawley, rat, in vivo, po.
Data set [9] has as its system behavioral toxicity. The settings on record: rat, po; TD50/ED50; cited from earlier work.
For data set [10], the system named is neurological impairment (rotorod test). The settings on record: mice, ip; TD50/ED50; cited from earlier work.
Data set [11] in a line: rotorod test for neurological impairment, mice. Type of data set: in vivo. The settings on record: male, Carworth Farms No. 1, mouse, in vivo, ip. (In general: In the rotarod test animals must keep their balance on a rotating rod.)
Data set [12] concerns maximal electroshock seizure (MES). To be noted: mice, ip; cited from earlier work.
Data set [13] shares this test system. To be noted: rat, po; cited from earlier work.
Data set [14] relates to neurological impairment (rotorod test). The data set is described as follows: rotorod test for neurological impairment, mice. It counts as in vivo. To be noted: mice, ip; rotorod test.

Like-named read-outs stand apart in the source and are kept apart here.

Regarding `NC(=O)C(NCc1ccc(OCc2cccc(F)c2)cc1)c1ccco1.O=C(O)C(=O)O` (racemic) [(R,S)-75, 2-(4′-((3″-Fluoro)benzyloxy)benzyl)amino-2-(furan-2-yl)acetamide Oxalate], the figures for the median effective dose (ED50) in data set [1] and in data set [2] were 10 to 30 mg/kg and 100 to 300 mg/kg, respectively. For the compound `COC[C@@H](NC(C)=O)C(=O)NCc1ccc(-c2cccc(F)c2)cc1` [(R)-11, (R)-N-(3″-Fluorobiphenyl-4-yl)methyl 2-Acetamido-3-methoxypropionamide], the behavioral toxicity observed result in the data set on behavioral toxicity [3] is given as “no evidence of behavioral toxicity”. Further, the “MES, ED50” value in data set [4] was 1.4 to 2.4 mg/kg. Consider `COC[C@@H](NC(C)=O)C(=O)NCc1ccc(OCc2cccc(F)c2)cc1` [(R)-10, (R)-N-4′-((3″-Fluoro)benzyloxy)benzyl 2-Acetamido-3-methoxypropionamide], for which the PI in the data set with behavioral toxicity [3] (rat, po) is greater than 36. Besides, the “pain responses in the acute and the chronic inflammatory phases” value in data set [5] was “reduced pain responses”. `COC[C@@H](NC(C)=O)C(=O)NCc1ccccc1` [(R)-3, Lacosamide]: the “hippocampal kindled seizure test ED50” value in data set [6] is recorded as 14 mg/kg. Moreover, the “reduction in pain, formalin model” value in data set [7] is “comparable reduction in pain was observed only in the late phase”. For the same compound, the “6 Hz (32 mA) ED50” value in data set [8] is listed as 10 mg/kg.

Turning to `CC(=O)NC(C(=O)NCc1ccc(OCc2cccc(F)c2)cc1)c1ccccn1` (racemic) [(R,S)-9, N-4′-((3″-Fluoro)benzyloxy)benzyl 2-Acetamido-2-(pyridin-2-yl)acetamide], the “Tox, TD50” value in the data set on behavioral toxicity [3] (rat, po, behavioral toxicity) is >30 [4] mg/kg. Also, the “MES, ED50” value in [4] was >30 [4] mg/kg.

In the data set with behavioral toxicity [3] (rat, po), `COC[C@@H](NC(C)=O)C(=O)NCc1ccc(COc2cccc(F)c2)cc1` [(R)-16, (R)-N-4′-(((3″-Fluoro)phenoxy)methyl)benzyl 2-Acetamido-3-methoxypropionamide] returned a PI greater than 21.

`COC[C@@H](NC(C)=O)C(=O)NCc1ccc(OCc2ccccc2F)cc1` [(R)-21, (R)-N-4′-((2″-Fluoro)benzyloxy)benzyl 2-Acetamido-3-methoxypropionamide]: the PI in the data set on behavioral toxicity [3] (rat, po) is greater than 45. In the case of `COC[C@@H](NC(C)=O)C(=O)NCc1ccc(Oc2cccc(F)c2)cc1` [(R)-12, (R)-N-4′-((3″-Fluoro)phenoxy)benzyl 2-N-Acetamido-3-methoxypropionamide], the 50% effective dose (ED50) in data set [1] was less than 30 mg/kg.

As for `COC[C@@H](NC(C)=O)C(=O)NCc1ccc(C#Cc2cccc(F)c2)cc1` [(R)-15, (R)-N-4′-(((3″-Fluoro)phenyl)ethynyl)benzyl 2-Acetamido-3-methoxypropionamide], in data set [1], the “duration of action in the MES model” value is on record as “extended duration of action”. In addition, the “duration of seizure protection” value in data set [4] (MES test, rat (po)) is on record as “extended for the entire 4 h testing period”. Moreover, the “MES, ED50” value in data set [4] lay in the range of 1.4 to 2.4 mg/kg. Consider `COC[C@@H](NC(C)=O)C(=O)NCc1ccc(OCc2ccccc2)cc1` [(R)-20, (R)-N-4′-(Benzyloxy)benzyl 2-N-Acetamido-3-methoxypropionamide], for which, in data set [1], the median effective dose (ED50) is less than 3 mg/kg. In the data set “behavioral toxicity, rat”, this compound came in with a TD50 greater than 10 mg/kg. `O=C1NC(=O)C(c2ccccc2)(c2ccccc2)N1` [phenytoin]: the PI in the data set with behavioral toxicity [9] is greater than 100. For `CCCC(CCC)C(=O)[O-].[Na+]` [valproate], the PI in data set [10] was 1.6; with behavioral toxicity [9], 0.6.

Take `CC(=O)N[C@@H](C)C(=O)NCc1ccc(OCc2cccc(F)c2)cc1` [(S)-6, (S)-N-4′-((3″-Fluoro)benzyloxy)benzyl 2-Acetamidopropionamide]: the TD50 in data set [11] is greater than 300 mg/kg. Take `C[C@@H](NCc1ccc(OCc2cccc(F)c2)cc1)C(N)=O` [(R)-4]: in data set [12], the “MES, ED50” value was 7.2 (5.9–8.9) mg/kg. Turning to `CC(=O)NCC(=O)NCc1ccc(OCc2cccc(F)c2)cc1` [compound 5, N-4′-((3″-Fluoro)benzyloxy)benzyl 2-Acetamidoacetamide], the behavioral toxicity observed entry in the data set with behavioral toxicity [3] is “no apparent neurological toxicity”. In the data set on behavioral toxicity [3] (rat, po), the PI was greater than 16. With `COC[C@@H](NC(C)=O)C(=O)NCc1ccc(-c2ccccc2)cc1` [(R)-73, (R)-N-(biphenyl-4-yl)methyl 2-acetamido-3-methoxypropionamide], the “MES, ED50” value in [13] is 2.0 mg/kg. On to `C[C@H](NCc1ccc(OCc2cccc(F)c2)cc1)C(N)=O` [(S)-4, Safinamide], for which the “MES, ED50” value in data set [12] is reported as 8.0 (7.0–9.1) mg/kg. Regarding `COC[C@@H](NC(C)=O)C(=O)NCc1ccc(OCc2ccc(F)cc2)cc1` [(R)-22, (R)-N-4′-((4″-Fluoro)benzyloxy)benzyl 2-Acetamido-3-methoxypropionamide], the PI in the data set on behavioral toxicity [3] (rat, po) is on record as greater than 86. Consider `COC[C@H](NC(C)=O)C(=O)NCc1ccc(OCc2cccc(F)c2)cc1` [(S)-10, (S)-N-4′-((3″-Fluoro)benzyloxy)benzyl 2-Acetamido-3-methoxypropionamide], for which, in [1], the ED50 was greater than 300 mg/kg. The “Tox, TD50” value in data set [14] is listed as greater than 300 mg/kg. As for `CC(=O)N[C@H](C)C(=O)NCc1ccc(OCc2cccc(F)c2)cc1` [(R)-6, (R)-N-4′-((3″-Fluoro)benzyloxy)benzyl 2-Acetamido-propionamide], the “duration of action in the MES model” value in data set [1] was “extended duration of action”. Moreover, in the data set with behavioral toxicity [3] (rat, po), the PI was greater than 16.

On to `COCC(NCc1ccc(OCc2cccc(F)c2)cc1)C(N)=O` (racemic) [(R,S)-74, 2-(4′-((3″-Fluoro)benzyloxy)benzyl)amino-3-methoxypropionamide], for which the ED50 in data set [1] was in the range of 30 to 100 mg/kg.

In general, ED50 refers to the dose at which the effect has come halfway, by size or by number of responders. As a reminder, the TD50 is the dose at which the toxic effect under study appears in half of the subjects.

(Values after publication PMC2867451 (Journal of medicinal chemistry, 2010).)
